The data set in a line: recombinant barcode read abundance after kanamycin selection (control-corrected) (log10(CPM+1)); higher = more efficient recombination; sequences stand for … in AGTGCAGAGAAAATCGGCCAGTTTTCTCTGCCTGCAGTCCGCATGCCGT…AGATTTATGCAGCGGACTGCCTTTCTCCCAAAGTGATAAACCGGACAGTATCATGGACCGGTTTTCCCGGTAATCCGTATTTGCAAGGTTGGTTTCACT; site = the 11-nt target. A digest of the protocol:
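In a pooled screen in E. coli, targets were paired with target-binding loops of the IS621 bridge RNA. Each oligo carried a promoter, a target, a barcode and the first 104 bridge RNA bases driven by J23119, and was Gibson-cloned into a vector holding the remaining 73 bp and a T7-inducible recombinase before co-electroporation with a donor plasmid. Duplicate platings went onto chloramphenicol/ampicillin LB agar as the control or onto chloramphenicol/ampicillin/kanamycin with 0.1 mM IPTG. Recombination efficiency is the averaged, control-corrected count per million of barcodes at recombinant junctions, given as log10(CPM+1).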
In the case of “TAACCGTCTTGGGTTCTAACCTGTTGCAT (site TAACAGTCTAC)”, the “recombinant barcode read abundance (log10)” value stood at 0.179.

Take “TAACCGTCTTGGGTTCTAACCTGTTGCAT (site TAACCGTCTAT)”: the “recombinant barcode read abundance (log10)” value worked out at 0.286. With “TAACCTACTTGGGTTCTAACCTGTTGCCT (site TAACCTACTAG)”, the “recombinant barcode read abundance (log10)” value came out at 0.442. With “TAACCTACTTGGGTTCTAACCTGTTGCCT (site TAACCTCCTAG)”, the “recombinant barcode read abundance (log10)” value came out at 0.055.

Consider “TAACCTACTTGGGTTCTAACCTGTTGCCT (site TAACCTGCTAG)”, for which the “recombinant barcode read abundance (log10)” value was determined as 0.0455. The same measure for “TAACCTACTTGGGTTCTAACCTGTTGCCT (site TAACCTTCTAG)”: 0.0774; for “TAACCTACTTGGGTTCTAACCTGTTGCTA (site GGTGAGGCTAT)”: 0.0991; for “TAACCTACTTGGGTTCTAACCTGTTGCTA (site TAACCTACTTA)”: 0.864. The same measure for “TAACCTCCTTGGGTTCTAACCTGTTGCCT (site TAACCTACTAG)”: 0.0181. Take “TAACCTCCTTGGGTTCTAACCTGTTGCCT (site TAACCTCCTAG)”: the “recombinant barcode read abundance (log10)” value came to 0.444. Take “TAACCTCCTTGGGTTCTAACCTGTTGCCT (site TAACCTGCTAG)”: the “recombinant barcode read abundance (log10)” value stood at 0.0867. For “TAACCTCCTTGGGTTCTAACCTGTTGCCT (site TAACCTTCTAG)” the value was 0.127; for “TAACGACCTTGGGTTCTAACCTGTTGCCT (site AAACGACCTAG)”, 0. On to “TAACGACCTTGGGTTCTAACCTGTTGCCT (site CAACGACCTAG)”, for which the “recombinant barcode read abundance (log10)” value was found to be 0.055. The same measure for “TAACGACCTTGGGTTCTAACCTGTTGCCT (site GAACGACCTAG)”: 0.0956; for “TAACGACCTTGGGTTCTAACCTGTTGCCT (site TAACGACCTAG)”: 1.42; for “TAACGGCCTTGGGTTCTAACCTGTTGCCT (site TAACGGCCTAG)”: 0.539.

Consider “TAACGGCCTTGGGTTCTAACCTGTTGCCT (site TACCGGCCTAG)”, for which the “recombinant barcode read abundance (log10)” value was 0.504. On to “TAACGGCCTTGGGTTCTAACCTGTTGCCT (site TAGCGGCCTAG)”, for which the “recombinant barcode read abundance (log10)” value turned out to be 0.198. As for “TAACGGCCTTGGGTTCTAACCTGTTGCCT (site TATCGGCCTAG)”, the “recombinant barcode read abundance (log10)” value amounted to 0.0776. For “TAACGTCCTTGGGTTCTAACCTGTTGCGT (site TAACGTACTCC)” the value was 0.0665; for “TAACGTCCTTGGGTTCTAACCTGTTGCGT (site TAACGTCCTAC)”, 1.4; for “TAACGTTCTTGGGTTCTAACCTGTTGCCT (site TAACGTTCTAG)”, 0.385. The same measure for “TAACGTTCTTGGGTTCTAACCTGTTGCCT (site TACCGTTCTAG)”: 0.0273; for “TAAGATCCTTGGGTTCTAACCTGTTGCCT (site TAAGATCCTAG)”: 1.63; for “TAAGATCCTTGGGTTCTAACCTGTTGCCT (site TAGGCTCCTAG)”: 0.0611. Turning to “TAAGCTACTTGGGTTCTAACCTGTTGCTG (site TAAGCCTCTCA)”, the “recombinant barcode read abundance (log10)” value came to 0.0237. For “TAAGCTACTTGGGTTCTAACCTGTTGCTG (site TAAGCTACTCA)”, the “recombinant barcode read abundance (log10)” value is 0.885. As for “TACAATTCTTGGGTTCTAACCTGTTGCAT (site GGGCTCCCTCG)”, the “recombinant barcode read abundance (log10)” value came to 0.0564. For “TACAATTCTTGGGTTCTAACCTGTTGCAT (site TACAATTCTAT)”, the “recombinant barcode read abundance (log10)” value came out at 0.03.

“TACAGCCCTTGGGTTCTAACCTGTTGCCT (site TACAGCCCTAG)”: the “recombinant barcode read abundance (log10)” value is 0.932.

As to “TACAGCCCTTGGGTTCTAACCTGTTGCCT (site TTCAGCCCTAG)”, the “recombinant barcode read abundance (log10)” value was determined as 0.183.

Regarding “TACAGTACTTGGGTTCTAACCTGTTGCCT (site AACAGTACTAG)”, the “recombinant barcode read abundance (log10)” value came out at 0.0317.

For the sequence “TACAGTACTTGGGTTCTAACCTGTTGCCT (site CACAGTACTAG)”, the “recombinant barcode read abundance (log10)” value came out at 0.326.

For “TACAGTACTTGGGTTCTAACCTGTTGCCT (site GACAGTACTAG)”, the “recombinant barcode read abundance (log10)” value worked out at 0.325. As for “TACAGTACTTGGGTTCTAACCTGTTGCCT (site TACAGTACTAG)”, the “recombinant barcode read abundance (log10)” value came to 0.291. The same measure for “TACATCCCTTGGGTTCTAACCTGTTGCCG (site TACATCCCTAG)”: 0.0934; for “TACATCCCTTGGGTTCTAACCTGTTGCCG (site TACATCCCTCG)”: 0.623; for “TACATCCCTTGGGTTCTAACCTGTTGCCG (site TACATCCCTGG)”: 0.0502. As to “TACATCCCTTGGGTTCTAACCTGTTGCCG (site TACATCCCTTG)”, the “recombinant barcode read abundance (log10)” value came out at 0.0738. The same measure for “TACCAGACTTGGGTTCTAACCTGTTGCCT (site TACCAGACTAG)”: 1.26. The same measure for “TACCAGACTTGGGTTCTAACCTGTTGCCT (site TACCCGACTAG)”: 0.033; for “TACCAGACTTGGGTTCTAACCTGTTGCCT (site TACCGGACTAG)”: 0.191; for “TACCAGACTTGGGTTCTAACCTGTTGCCT (site TACCTGACTAG)”: 0.0512.

Take “TACCCTTCTTGGGTTCTAACCTGTTGCGT (site CCTAAGCCTCA)”: the “recombinant barcode read abundance (log10)” value was found to be 0.0691. With “TACCCTTCTTGGGTTCTAACCTGTTGCGT (site TACCCTTCTAC)”, the “recombinant barcode read abundance (log10)” value amounted to 1.84.

Consider “TACCGGACTTGGGTTCTAACCTGTTGCCT (site TACCAGACTAG)”, for which the “recombinant barcode read abundance (log10)” value came out at 0.252. Turning to “TACCGGACTTGGGTTCTAACCTGTTGCCT (site TACCCGACTAG)”, the “recombinant barcode read abundance (log10)” value was 0.139.

With “TACCGGACTTGGGTTCTAACCTGTTGCCT (site TACCGGACTAG)”, the “recombinant barcode read abundance (log10)” value came out at 1.56. Consider “TACCGGACTTGGGTTCTAACCTGTTGCCT (site TACCTGACTAG)”, for which the “recombinant barcode read abundance (log10)” value was determined as 0.0144. For the sequence “TACCGGTCTTGGGTTCTAACCTGTTGCTT (site TACCAGTCTAA)”, the “recombinant barcode read abundance (log10)” value was found to be 0.18. For “TACCGGTCTTGGGTTCTAACCTGTTGCTT (site TACCCGTCTAA)” the value was 0.13; for “TACCGGTCTTGGGTTCTAACCTGTTGCTT (site TACCGGTCTAA)”, 1.46; for “TACCGGTCTTGGGTTCTAACCTGTTGCTT (site TACCTGTCTAA)”, 0.00501. On to “TACCTAACTTGGGTTCTAACCTGTTGCTT (site GGTTCCTCTCC)”, for which the “recombinant barcode read abundance (log10)” value is 0.206.

For “TACCTAACTTGGGTTCTAACCTGTTGCTT (site TACCTAACTAA)”, the “recombinant barcode read abundance (log10)” value was 0.0655. In the case of “TACCTGCCTTGGGTTCTAACCTGTTGCGT (site GCCCTGCCTAC)”, the “recombinant barcode read abundance (log10)” value was 0.0159. As for “TACCTGCCTTGGGTTCTAACCTGTTGCGT (site TACCTGCCTAC)”, the “recombinant barcode read abundance (log10)” value came to 1.27.

Turning to “TACCTGTCTTGGGTTCTAACCTGTTGCTT (site TACCAGTCTAA)”, the “recombinant barcode read abundance (log10)” value was found to be 0.139.

Turning to “TACCTGTCTTGGGTTCTAACCTGTTGCTT (site TACCCGTCTAA)”, the “recombinant barcode read abundance (log10)” value turned out to be 0.251. In the case of “TACCTGTCTTGGGTTCTAACCTGTTGCTT (site TACCGGTCTAA)”, the “recombinant barcode read abundance (log10)” value stood at 0.543. As to “TACCTGTCTTGGGTTCTAACCTGTTGCTT (site TACCTGTCTAA)”, the “recombinant barcode read abundance (log10)” value came to 1.77.

With “TACGACGCTTGGGTTCTAACCTGTTGCCT (site TAAGACGCTAG)”, the “recombinant barcode read abundance (log10)” value is 0.0663. In the case of “TACGACGCTTGGGTTCTAACCTGTTGCCT (site TACGACGCTAG)”, the “recombinant barcode read abundance (log10)” value amounted to 0.756.

“TACGACGCTTGGGTTCTAACCTGTTGCCT (site TAGGACGCTAG)”: the “recombinant barcode read abundance (log10)” value amounted to 0.0186. Take “TACGACGCTTGGGTTCTAACCTGTTGCCT (site TATGACGCTAG)”: the “recombinant barcode read abundance (log10)” value stood at 0.128. Consider “TACGATACTTGGGTTCTAACCTGTTGCGT (site CTACGACCTCT)”, for which the “recombinant barcode read abundance (log10)” value came to 0.0489. Turning to “TACGATACTTGGGTTCTAACCTGTTGCGT (site TACGATACTAC)”, the “recombinant barcode read abundance (log10)” value stood at 1.19. For “TACGCTCCTTGGGTTCTAACCTGTTGCGT (site TACGCTCCTAA)”, the “recombinant barcode read abundance (log10)” value worked out at 0.0715. For “TACGCTCCTTGGGTTCTAACCTGTTGCGT (site TACGCTCCTAC)”, the “recombinant barcode read abundance (log10)” value was 0.108. On to “TACGCTCCTTGGGTTCTAACCTGTTGCGT (site TACGCTCCTAG)”, for which the “recombinant barcode read abundance (log10)” value is 0.0936. For “TACGCTCCTTGGGTTCTAACCTGTTGCGT (site TACGCTCCTAT)” the value was 0.501. Regarding “TACGGTCCTTGGGTTCTAACCTGTTGCTT (site TACGGTCCTAA)”, the “recombinant barcode read abundance (log10)” value was found to be 1.08.

As for “TACGGTCCTTGGGTTCTAACCTGTTGCTT (site TAGGCTCCTAA)”, the “recombinant barcode read abundance (log10)” value came out at 0.261. For “TACGTGGCTTGGGTTCTAACCTGTTGCCT (site TACGAGGCTAG)” the value was 0.182; for “TACGTGGCTTGGGTTCTAACCTGTTGCCT (site TACGCGGCTAG)”, 0.0139. Turning to “TACGTGGCTTGGGTTCTAACCTGTTGCCT (site TACGGGGCTAG)”, the “recombinant barcode read abundance (log10)” value is 0.502.

(Values after the supplement of paper PMC11208160.)
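Also: IS621 recombinase and bridge RNA in Escherichia coli cells.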
